Test system: TNBS induced colitis model in rat
Assay: Pharmacodynamic (PD) study in TNBS induced colitis model in rat
Type: in vivo, Wistar rat male
Experimental: However, these differences in PK parameters were not observed in Pharmacodynamic (PD) study (Experiment 02) conducted in TNBS induced colitis model in rat. […] In this study, the efficacy parameters measured were colon weight to length ratio, colonic […] score (which includes sum of Adhesion score, Stricture score, Ulcer, Wall thickness) and Lymphocyte count. Colon weight to length ratio and macroscopic colon disease score were determined at the end of the study, whereas Lymphocyte count in circulation relative to vehicle treated TNBS challenged diseased animals (Vehicle control) was assessed 24 h after the last dose. […] The reasons for the similar efficacy response even at the differences in PK profile between both the formulations could be due to receptor saturation of S1P1 receptors overexpressed at the intestine at the dose of 1 mg/kg administered in both the treatment groups. […] The cardiac side effects such as Bradyarrhythmia and Atrioventricular Conduction Delays, which are associated with high Cmax from immediate-release formulation, get reduced or eliminated with the use of delayed-release formulation without affecting efficacy. Thus, the delayed-release formulation may also offer the skipping or reduce frequency of up-titration scheme.

Nc1ccc(O)c(C(=O)O)c1 [Mesalamine]
Lymphocyte count, % Inhibition (Mean ± SEM) (24 h after the last dose, relative to vehicle treated TNBS challenged animals): 13.39 ± 21.66% | inhibition at 150 mg/kg (144 h, oral once a day for 6 days, IR 1 mg/kg, DR 0.89 mg/kg, Mesalamine 150 mg/kg, versus vehicle control, read-out: Colon Macroscopic Score, % Inhibition (Mean ± SEM)): 56.5 ± 5.02% | Lymphocyte count (10^3/μL), Observation (Mean ± SEM) (circulating, 24 h after the last dose, IR 1 mg/kg, DR 0.89 mg/kg, Mesalamine 150 mg/kg oral for 6 days): 7.6 ± 1.9 10^3/μL | Colon Weight to Length ratio (mg/cm), Observation (Mean ± SEM) (oral once a day for 6 consecutive days, IR 1 mg/kg, DR 0.89 mg/kg, Mesalamine 150 mg/kg, end of study): 120.44 ± 4.22 mg/cm | Colon Macroscopic Score [Sum of scores of Adhesion score, Stricture score, Ulcer, Wall thickness], Observation (Mean ± SEM) (oral once a day for 6 days, IR 1 mg/kg, DR 0.89 mg/kg, Mesalamine 150 mg/kg, end of study): 2.5 ± 0.29 | Colon Weight to Length ratio, % Inhibition (Mean ± SEM) (oral once a day for 6 days, IR 1 mg/kg, DR 0.89 mg/kg, Mesalamine 150 mg/kg, versus vehicle control): 41.75 ± 2.04%
